Reference: patent US4642332A, “Effective hormonal peptides: D-3-Pal^6 -LHRH” (The Board of Regents, The University of Texas System, priority 1985, dated 1987)

Tests used:
[1] = tested on: pituitary cells from 21 day old rats; test: In vitro pituitary incubate assay (release of LH and FSH); format: cell-based, rat; conditions: for FSH released into medium (ng/ml) ± SEM / LH ng/ml medium ± SEM: Table IV, mean of 9
Procedure: The data in Tables IV and V are from the in vitro assay of the peptides with the pituitary incubate. This assay measures the release of LH and FSH in an in vitro system with pituitary cells from 21 day old rats. See, Bowers, C. Y. et al. on the inhibitory effects of leutinizing hormone releasing hormone analogs. Endocrinology, 106: 674 (1980).
The abbreviations are as follows: sc-subcutaneous, SEM-standard error of the mean; NS-not significant; ng-nanogram, and ml-milliliter. The p value represents the population coefficient .rho.(rho) which signifies whether a sample coefficient is significant or a chance deviation from zero.

21 day old female rats = test: In vivo assay in rats for release of LH and FSH; design: species or system rat; conditions: for Serum FSH ng/ml SEM / Serum LH ng/ml SEM: Table IX, blood sample at ±60 minutes; for Serum FSH ng/ml SEM / Serum LH ng/ml SEM / FSH ng/ml Serum ± SEM at +120 min / LH ng/ml Serum ± SEM at +120 min: mean of 6; for FSH ng/ml Serum ± SEM at +120 min / LH ng/ml Serum ± SEM at +120 min: Table X; for +2 hrs LH ± SEM ng/ml serum / FSH ± SEM ng/ml serum (+2 hrs) / +3 hrs LH ± SEM ng/ml serum / FSH ± SEM ng/ml serum (+3 hrs): Table XI, mean 5-6
Procedure: In vivo rat assay performed by a modification of the method of Bowers, C. Y. et al. Endocrinology, 106, 674 (1980). 21 day old female rats were injected sc with saline or peptide. Blood samples for the RIAs of LH and FSH were collected at +15, +60, +120, or +180 minutes. (Tables VI-XI).

[2] = at 0.1 ng, statement on Table IV
[3] = Table VI, 1.75 ng/rat sc, mean of 9
[4] = Table VI, 5 ng/rat sc, mean of 9
[5] = Table VI, 15 ng/rat sc, mean of 9
[6] = Table VI, 50 ng/rat sc, mean of 9
[7] = Table VIII first section (time not given), 15 ng/rat sc, mean of 5-6
[8] = Table VIII first section (time not given), 150 ng/rat sc, mean of 5-6
[9] = Table VIII, ±60 min after injection, 15 ng/rat sc, mean of 5-6
[10] = Table VIII, ±60 min after injection, 150 ng/rat sc, mean of 5-6

With `CC(C)C[C@H](NC(=O)[C@@H](Cc1cccnc1)NC(=O)[C@H](Cc1ccc(O)cc1)NC(=O)[C@H](CO)NC(=O)[C@H](Cc1c[nH]c2ccccc12)NC(=O)[C@H](Cc1c[nH]cn1)NC(=O)[C@@H]1CCC(=O)N1)C(=O)N[C@@H](CCCNC(=N)N)C(=O)N1CCC[C@H]1C(=O)NCC(N)=O` [D-Pal^6 -LHRH, pyroGlu-His-Trp-Ser-Tyr-D-3-Pal-Leu-Arg-Pro-GlyNH2] the “FSH released into medium (ng/ml) ± SEM” value ([1]; dosage 0.03 ng/ml medium) was 1062 ± 394, the “LH ng/ml medium ± SEM” value ([1]; dosage 0.03 ng/ml medium) was 73 ± 10 ng/mL and the “FSH released into medium (ng/ml) ± SEM” value ([1]; dosage 0.1 ng/ml medium) was 3109 ± 486. For the same molecule, the “LH ng/ml medium ± SEM” value ([1]; dosage 0.1 ng/ml medium) was 345 ± 72 ng/mL, the “FSH released into medium (ng/ml) ± SEM” value ([1]; dosage 0.3 ng/ml medium) was 5126 ± 967 and the “LH ng/ml medium ± SEM” value ([1]; dosage 0.3 ng/ml medium) was 811 ± 182 ng/mL. The “FSH released into medium (ng/ml) ± SEM” value ([1]; dosage 1.0 ng/ml medium) was 9637 ± 1490, the “LH ng/ml medium ± SEM” value ([1]; dosage 1.0 ng/ml medium) was 1439 ± 233 ng/mL and the “activity for the release of LH, D-Pal^6 -LHRH compared with D-Qal^6 -LHRH” value [1, 2] was “essentially equivalent”. For the same molecule, the “release of FSH, D-Pal^6 -LHRH compared with D-Qal^6 -LHRH” value [1, 2] was “same essential equivalents”, the “potency, D-Pal^6 -LHRH compared with D-Trp^6 -LHRH” value ([1]; inferred from equivalence with D-Qal^6 -LHRH) was “essentially equipotent” and the “Serum FSH ng/ml SEM” value (21 day old female rats; 50 ng/rat sc) was 3099 ± 361 ng/mL. For the same molecule, the “Serum LH ng/ml SEM” value (21 day old female rats; 50 ng/rat sc) was 120 ± 16 ng/mL, the “Serum FSH ng/ml SEM” value (21 day old female rats; 150 ng/rat sc) was 3064 ± 677 ng/mL and the “Serum LH ng/ml SEM” value (21 day old female rats; 150 ng/rat sc) was 122 ± 19 ng/mL. The “Serum FFSH ng/ml ± SEM” value (21 day old female rats; [3]) was 471 ± 128 ng/mL, the “Serum LH ng/ml ± SEM” value (21 day old female rats; [3]) was 1.5 ± 0.3 ng/mL and the “Serum FFSH ng/ml ± SEM” value (21 day old female rats; [4]) was 738 ± 71 ng/mL. The “Serum LH ng/ml ± SEM” value (21 day old female rats; [4]) was 7 ± 1 ng/mL, the “Serum FFSH ng/ml ± SEM” value (21 day old female rats; [5]) was 1270 ± 140 ng/mL and the “Serum LH ng/ml ± SEM” value (21 day old female rats; [5]) was 43 ± 7 ng/mL. For the same molecule, the “Serum FFSH ng/ml ± SEM” value (21 day old female rats; [6]) was 2267 ± 342 ng/mL, the “Serum LH ng/ml ± SEM” value (21 day old female rats; [6]) was 103 ± 8 ng/mL and the “Serum FSH ng/ml ± SEM” value (21 day old female rats; [7]) was 1711 ± 644 ng/mL. The “Serum LH ng/ml ± SEM” value (21 day old female rats; [7]) was 36 ± 9 ng/mL, the “Serum FSH ng/ml ± SEM” value (21 day old female rats; [8]) was 1591 ± 588 ng/mL and the “Serum LH ng/ml ± SEM” value (21 day old female rats; [8]) was 111 ± 16 ng/mL. The “Serum FSH ng/ml ± SEM” value (21 day old female rats; [9]) was 1992 ± 379 ng/mL, the “Serum LH ng/ml ± SEM” value (21 day old female rats; [9]) was 81.0 ± 17 ng/mL and the “Serum FSH ng/ml ± SEM” value (21 day old female rats; [10]) was 6432 ± 2216 ng/mL. The “Serum LH ng/ml ± SEM” value (21 day old female rats; [10]) was 106.0 ± 3 ng/mL, the “FSH ng/ml Serum ± SEM at +120 min” value (21 day old female rats; 50 ng/rat sc) was 3251 ± 485 ng/mL and the “LH ng/ml Serum ± SEM at +120 min” value (21 day old female rats; 50 ng/rat sc) was 111 ± 26 ng/mL. For the same molecule, the “FSH ng/ml Serum ± SEM at +120 min” value (21 day old female rats; 150 ng/rat sc) was 5293 ± 686 ng/mL, the “LH ng/ml Serum ± SEM at +120 min” value (21 day old female rats; 150 ng/rat sc) was 216 ± 46 ng/mL and the “+2 hrs LH ± SEM ng/ml serum” value (21 day old female rats; 50 ng sc) was 108 ± 17 ng/mL. For the same molecule, the “FSH ± SEM ng/ml serum (+2 hrs)” value (21 day old female rats; 50 ng sc) was 1727 ± 222 ng/mL, the “+3 hrs LH ± SEM ng/ml serum” value (21 day old female rats; 50 ng sc) was 20 ± 2.3 ng/mL and the “FSH ± SEM ng/ml serum (+3 hrs)” value (21 day old female rats; 50 ng sc) was 1312 ± 163 ng/mL. The “+2 hrs LH ± SEM ng/ml serum” value (21 day old female rats; 150 ng sc) was 144 ± 27 ng/mL, the “FSH ± SEM ng/ml serum (+2 hrs)” value (21 day old female rats; 150 ng sc) was 2362 ± 293 ng/mL and the “+3 hrs LH ± SEM ng/ml serum” value (21 day old female rats; 150 ng sc) was 38 ± 6.3 ng/mL. The “FSH ± SEM ng/ml serum (+3 hrs)” value (21 day old female rats; 150 ng sc) was 1617 ± 143 ng/mL, the “release of LH (in words)” value (21 day old female rats; dosage of 5 ng) was “significantly released LH” and the FSH released (21 day old female rats; dosage of 15 ng) was 1270 ± 140 ng. The “LH released relative to LHRH” value (21 day old female rats; dosage of 50 ng, corrected for the level of LH before addition of the peptides) was ~50 times and the “potency compared with LHRH when tested biologically” value (21 day old female rats; summary statement, test not specified) was “significantly more potent than LHRH itself”.

`CCNC(=O)[C@@H]1CCCN1C(=O)[C@H](CCCNC(=N)N)NC(=O)[C@H](CC(C)C)NC(=O)[C@@H](Cc1c[nH]c2ccccc12)NC(=O)[C@H](Cc1ccc(O)cc1)NC(=O)[C@H](CO)NC(=O)[C@H](Cc1c[nH]c2ccccc12)NC(=O)[C@H](Cc1c[nH]cn1)NC(=O)[C@@H]1CCC(=O)N1` [D-Trp^6 Pro^9 Net--LHRH, pyroGlu--His--Trp--Ser--Tyr-- D-Trp--Leu--Arg--Pro--EA**] was tested, and the “LH ng/ml Serum ± SEM ± 15 min” value (21 day old female rats; Table VII, dosage 100 mg/rat sc (so in the source), ± 15 min) was 59 ± 10 ng/mL, the “LH ng/ml Serum ± SEM ± 60 min” value (21 day old female rats; Table VII, dosage 100 mg/rat sc (so in the source), ± 60 min) was 228 ± 41 ng/mL and the “+2 hrs LH ± SEM ng/ml serum” value (21 day old female rats; 150 ng sc) was 184 ± 29 ng/mL. For the same molecule, the “FSH ± SEM ng/ml serum (+2 hrs)” value (21 day old female rats; 150 ng sc) was 2260 ± 294 ng/mL and the “+3 hrs LH ± SEM ng/ml serum” value (21 day old female rats; 150 ng sc) was 103 ± 9 ng/mL.
